Source: patent publication US11564911B2, “Small molecule dual-inhibitors of TRPV4 and TRPA1 for sanitizing and anesthetizing” (Duke University, priority 2016, dated 2023)
Where “and” joins values, the source holds several entries; their conditions need not be identical. Equal values may be shown once.

Legend:
TRPV4 (rat) = biological target: T1, TRPV4 (rat) (Rattus norvegicus, UniProt Q9ERZ8); assay: Ca++ imaging in N2a cells with directed expression of TRPV4, activation with GSK101; assay type: cell-based; conditions: for IC50: N2a cells, rat TRPV4, 5 nM GSK101, averaged peak ΔCa++, read-out: IC50, inhibition of TRPV4-mediated Ca++ influx; for inhibition of TRPV4-mediated Ca++ influx, first round screening: inhibitor 5 μM, 5 nM GSK101
T1 construct: expressed in transfected cells; host or cells: N2a (mouse neuroblastoma) cells
From the text: FIGS. 26A-26B: Assessment of compounds in N2a cells with directed expression of TRPV4. […] The number on each bar corresponds to average peak ΔCa++ concentrations in ≈100 cells. […] Plot generated from averaged peak ΔCa++ concentration of 75 cells per data-point.

human TRPA1 = biological target: T2, human TRPA1 (Homo sapiens, UniProt O75762); assay: Ca2+ transient in N2a cells transfected with human TRPA1, AITC activation; assay type: cell-based; conditions: GSK205: doses below or equaling 25 μM
T2 construct: expressed in transfected cells; host or cells: N2a cells, co-transfected with eGFP plasmid
Procedure: Compounds were tested for their effect on TRPA1. N2a permanent cells were transfected with human TRPA1 cDNA, using a pcDNA3.1 expression plasmid. They were co-transfected with eGFP-expressing plasmid, or, for control, with eGFP plasmid only.
Cells were then pre-exposed to 5 μM of compounds 16-8 and 16-19 for 10 min.

TRPV3 = biological target: T3, TRPV3 (Mus musculus, UniProt Q8K424); assay: Ca++ imaging in N2a cells over-expressing TRPV3; assay type: cell-based; conditions: 5 μM, mouse isoform in N2a cells
T3 construct: expressed in transfected cells; host or cells: N2a cells, eGFP co-transfected
From the text: (§1) Mean±SEM is shown, ≥100 cells per condition. […] Plot generated from averaged peak ΔCa++ concentration of […] per data-point.

[1] = Assessment of hepatic, renal and cardiac function in treated mice; assay type: in vivo, mouse; conditions: 10 mg/kg i.p., vs vehicle; for heart rate (EKG): over 1 h, at the 6 h time-point
Procedure: Mice were treated i.p. with compounds 16-8 and 16-19 (10 mg/kg). Hepatic and renal integrity were analyzed by alanine amino-transferase- and creatinine assays (Sigma), both relying on measurement of absorbance at λ=570 nm in 96-well micro-titerplates. 8 technical replicates per animal were performed.
For heart rate assessment in mice treated with 16-8 and 16-19, animals were fitted with two electrodes, one to the ear, via clip, one to the rib-cage, using firm adhesive. Heart rate was monitored and analyzed using axoscope and clampfit 9.2 software (Molecular Devices)

[2] = system: BL6 mice, whisker-pad injection of formalin; assay: Formalin-evoked nocifensive behavior, compound pre-injected into the whiskerpad; assay type: in vivo, mouse; conditions: 0.5 mM/10 μL pre-injected into whiskerpad 15 min before formalin
Procedure: Compounds were tested for their effect in reducing pain using an in vivo pain model in mice. For mouse formalin-evoked irritant behavior measurements, mice were well-fed, well-rested, and tested at the same time of day, at the same time-point of their circadian rhythm. They were allowed to acclimate to a plexiglas chamber for at least 30 min before testing, and received 10 μL subcutaneous injection of 4% of formalin (diluted from an aqueous solution of commercial 37% formaldehyde with normal saline (NS)) through a 30-gauge needle into the right whiskerpad, as further detailed in Luccarini et al. (J. Pain, 2006, 7, 908-914). Normal saline was used as control injection. After injection, mice were immediately placed back into the chamber and the rubbing behavior was recorded by a private consumer-type video-camera for a 45 min observation period. The recording time was divided into 9 blocks of 5 min, and a nociceptive score was determined per block by measuring the time that the animals spent rubbing the injected area predominantly with the ipsilateral fore-paw and rarely with hind-paw. This rubbing behavior with fore-paw is evoked by pain, which is distinct from itch behavior. Behavioral analysis was conducted by observers blinded to treatment.
To investigate the effects of the specific compounds GSK205, 16-8, and 16-19 on formalin-induced nociceptive behavior, mice received a single subcutaneous injection of the compounds into the whiskerpad (10 μL, dissolved in 4% DMSO) 15 min before formalin injection. Control animals received the same volume of NS, 4% DMSO.

[3] = system: mice, UVB-exposed hind paws; assay: UVB-overexposure evoked nocifensive behavior, topical compound; assay type: in vivo, mouse; conditions: 0.5 mM in 40 μL
Procedure: Compounds were tested for their effect on nocifensive behavior (response to pain) following UVB overexposure. Behavioral tests were performed to evaluate the decrease in withdrawal thresholds in response to mechanical von Frey hair or thermal stimuli applied to hind paws. The Von-Frey apparatus (Ugo Basile) applied a mechanical stimulus with a flexible steel wire from underneath the hind paw. The force leading to withdrawal was determined. For the thermal stimuli test, paws were stimulated with heat from underneath applied by an infrared beam (Hargreave's test apparatus; Ugo Basile), and withdrawal latencies were recorded. The withdrawal thresholds were ascertained before and after UV exposure. Mice were exposed to UVB 3-5 days after the last application of tam/oil, using a Bio-Rad Gel Doc 2000 UV transilluminator (302 nm) for 5 min with an exposure of 600 mJ/cm^2. This represents 5-10 times the minimal erythema-inducing dose, in keeping with the rationale of inducing sunburn and studying sunburn-evoked pain.

TRPV4 = TRPV4 (Homo sapiens, UniProt Q9HBA0); assay: TRPV4-mediated calcium influx in N2a cells with targeted expression of human TRPV4; assay type: cell-based; design: expressed in transfected cells; host or cells: N2a cells; conditions: 2.5 μM inhibitor, pre-incubation 10 min, 10 nM GSK101
TRPA1 (mouse) = biological target: T4, TRPA1 (mouse) (Mus musculus, UniProt Q8BLA8); assay: Ca++ imaging in N2a cells with directed expression of TRPA1, mustard oil activation; assay type: cell-based; conditions: mouse TRPA1, 100 μM mustard oil, read-out: IC50, inhibition of TRPA1
T4 construct: expressed in transfected cells; host or cells: N2a cells, eGFP co-transfected
From the text: as §1

T4 sequence (Q8BLA8 whole entry): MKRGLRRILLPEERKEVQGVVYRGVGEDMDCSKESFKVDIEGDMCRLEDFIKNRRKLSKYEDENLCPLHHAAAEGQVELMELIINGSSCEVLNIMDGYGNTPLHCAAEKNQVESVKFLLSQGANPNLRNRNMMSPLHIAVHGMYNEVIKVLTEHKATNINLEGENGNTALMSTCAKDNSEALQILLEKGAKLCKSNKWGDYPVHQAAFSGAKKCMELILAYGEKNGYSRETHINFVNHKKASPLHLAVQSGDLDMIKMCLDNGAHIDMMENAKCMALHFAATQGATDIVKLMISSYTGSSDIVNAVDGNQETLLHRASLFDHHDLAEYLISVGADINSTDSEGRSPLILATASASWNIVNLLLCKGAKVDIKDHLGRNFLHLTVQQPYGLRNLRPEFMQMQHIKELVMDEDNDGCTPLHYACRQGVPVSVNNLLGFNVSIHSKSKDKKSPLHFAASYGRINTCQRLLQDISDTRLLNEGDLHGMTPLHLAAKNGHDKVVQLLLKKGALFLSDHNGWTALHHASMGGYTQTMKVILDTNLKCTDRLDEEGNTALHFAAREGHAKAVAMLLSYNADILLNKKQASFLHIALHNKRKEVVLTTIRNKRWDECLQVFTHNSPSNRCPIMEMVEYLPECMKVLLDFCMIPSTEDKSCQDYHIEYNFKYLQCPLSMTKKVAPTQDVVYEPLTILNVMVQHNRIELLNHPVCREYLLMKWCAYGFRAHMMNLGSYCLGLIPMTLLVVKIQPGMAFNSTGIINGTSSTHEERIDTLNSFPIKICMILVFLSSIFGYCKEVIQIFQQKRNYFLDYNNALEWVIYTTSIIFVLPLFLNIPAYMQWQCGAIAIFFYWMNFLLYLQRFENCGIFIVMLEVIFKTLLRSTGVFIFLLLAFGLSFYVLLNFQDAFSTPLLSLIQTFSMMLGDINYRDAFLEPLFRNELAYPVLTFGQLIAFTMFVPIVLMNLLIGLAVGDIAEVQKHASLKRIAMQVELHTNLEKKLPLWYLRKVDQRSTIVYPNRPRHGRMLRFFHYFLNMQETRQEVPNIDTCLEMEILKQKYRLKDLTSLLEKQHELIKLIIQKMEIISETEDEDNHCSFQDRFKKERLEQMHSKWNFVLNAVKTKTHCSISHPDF
T1 sequence (Q9ERZ8 whole entry): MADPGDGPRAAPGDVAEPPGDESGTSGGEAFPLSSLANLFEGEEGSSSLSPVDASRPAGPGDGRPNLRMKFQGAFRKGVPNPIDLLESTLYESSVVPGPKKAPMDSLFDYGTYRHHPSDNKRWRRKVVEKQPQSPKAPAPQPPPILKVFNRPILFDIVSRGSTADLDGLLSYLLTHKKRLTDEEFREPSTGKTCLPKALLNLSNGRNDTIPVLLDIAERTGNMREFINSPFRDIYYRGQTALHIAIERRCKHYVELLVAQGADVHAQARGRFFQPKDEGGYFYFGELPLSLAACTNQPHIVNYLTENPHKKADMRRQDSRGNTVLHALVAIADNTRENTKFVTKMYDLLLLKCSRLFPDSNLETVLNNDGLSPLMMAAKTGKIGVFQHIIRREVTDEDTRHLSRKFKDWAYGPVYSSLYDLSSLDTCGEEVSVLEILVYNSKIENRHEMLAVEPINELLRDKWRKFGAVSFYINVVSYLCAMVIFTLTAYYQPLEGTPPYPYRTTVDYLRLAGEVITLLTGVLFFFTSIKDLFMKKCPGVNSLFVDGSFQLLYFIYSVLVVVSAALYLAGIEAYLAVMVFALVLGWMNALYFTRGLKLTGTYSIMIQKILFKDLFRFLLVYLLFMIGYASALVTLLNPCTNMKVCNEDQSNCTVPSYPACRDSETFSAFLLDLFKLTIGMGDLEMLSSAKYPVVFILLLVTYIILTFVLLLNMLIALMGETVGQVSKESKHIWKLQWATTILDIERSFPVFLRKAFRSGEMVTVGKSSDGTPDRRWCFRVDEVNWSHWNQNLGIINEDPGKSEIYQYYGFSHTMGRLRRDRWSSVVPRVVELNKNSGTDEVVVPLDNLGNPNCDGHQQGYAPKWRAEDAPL
T2 sequence (O75762 whole entry): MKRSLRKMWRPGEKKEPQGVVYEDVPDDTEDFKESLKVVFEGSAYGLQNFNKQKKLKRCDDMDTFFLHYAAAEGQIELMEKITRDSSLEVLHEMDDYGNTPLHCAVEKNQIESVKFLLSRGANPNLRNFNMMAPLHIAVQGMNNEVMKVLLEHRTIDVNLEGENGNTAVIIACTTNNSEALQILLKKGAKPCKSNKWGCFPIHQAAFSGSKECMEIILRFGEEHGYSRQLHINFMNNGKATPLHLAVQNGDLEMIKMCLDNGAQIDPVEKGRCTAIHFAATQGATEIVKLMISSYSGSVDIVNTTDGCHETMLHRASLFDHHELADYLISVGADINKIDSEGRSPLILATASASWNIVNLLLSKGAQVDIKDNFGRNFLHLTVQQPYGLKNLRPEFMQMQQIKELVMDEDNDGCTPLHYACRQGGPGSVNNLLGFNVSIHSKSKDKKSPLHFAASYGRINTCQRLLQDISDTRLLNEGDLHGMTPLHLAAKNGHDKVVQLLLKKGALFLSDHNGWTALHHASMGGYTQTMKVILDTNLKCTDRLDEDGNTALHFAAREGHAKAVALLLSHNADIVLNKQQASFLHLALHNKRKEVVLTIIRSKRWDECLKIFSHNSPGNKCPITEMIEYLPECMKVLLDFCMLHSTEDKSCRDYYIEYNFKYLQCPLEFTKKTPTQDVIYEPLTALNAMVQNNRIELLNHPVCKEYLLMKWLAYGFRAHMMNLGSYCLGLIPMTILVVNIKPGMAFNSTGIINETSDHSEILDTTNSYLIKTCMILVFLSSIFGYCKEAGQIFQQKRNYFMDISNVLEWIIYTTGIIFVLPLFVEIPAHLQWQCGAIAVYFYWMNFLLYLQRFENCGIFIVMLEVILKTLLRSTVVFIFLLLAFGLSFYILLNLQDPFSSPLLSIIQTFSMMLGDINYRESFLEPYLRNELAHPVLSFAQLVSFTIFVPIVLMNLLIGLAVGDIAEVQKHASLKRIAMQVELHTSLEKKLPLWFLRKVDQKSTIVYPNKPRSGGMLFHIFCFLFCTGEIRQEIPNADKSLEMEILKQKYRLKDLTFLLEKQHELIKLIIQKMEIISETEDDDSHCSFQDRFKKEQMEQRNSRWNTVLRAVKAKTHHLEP
Sequence of TRPV4 (Q9HBA0 whole entry): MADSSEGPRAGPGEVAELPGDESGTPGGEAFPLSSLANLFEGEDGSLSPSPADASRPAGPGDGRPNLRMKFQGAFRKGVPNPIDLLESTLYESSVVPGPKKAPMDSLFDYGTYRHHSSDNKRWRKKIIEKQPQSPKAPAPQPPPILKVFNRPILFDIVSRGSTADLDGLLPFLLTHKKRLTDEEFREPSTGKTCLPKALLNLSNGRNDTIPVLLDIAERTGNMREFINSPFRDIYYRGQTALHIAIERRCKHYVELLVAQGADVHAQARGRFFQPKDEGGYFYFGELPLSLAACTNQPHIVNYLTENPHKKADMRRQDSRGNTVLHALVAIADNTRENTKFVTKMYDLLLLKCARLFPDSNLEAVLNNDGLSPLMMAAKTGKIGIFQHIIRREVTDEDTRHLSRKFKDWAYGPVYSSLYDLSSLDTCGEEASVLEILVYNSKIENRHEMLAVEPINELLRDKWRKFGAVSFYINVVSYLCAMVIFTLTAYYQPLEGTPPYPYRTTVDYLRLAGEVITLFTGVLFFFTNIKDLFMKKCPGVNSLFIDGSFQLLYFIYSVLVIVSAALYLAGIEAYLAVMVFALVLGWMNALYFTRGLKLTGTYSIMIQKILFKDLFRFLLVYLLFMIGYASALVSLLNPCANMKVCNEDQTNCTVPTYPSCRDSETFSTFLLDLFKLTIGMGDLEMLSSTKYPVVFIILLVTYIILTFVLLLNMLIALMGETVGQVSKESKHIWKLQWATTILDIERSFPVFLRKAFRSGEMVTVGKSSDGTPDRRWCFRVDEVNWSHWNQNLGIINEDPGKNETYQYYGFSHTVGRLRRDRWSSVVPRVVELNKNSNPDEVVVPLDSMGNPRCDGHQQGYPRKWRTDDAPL
T3 sequence (Q8K424 whole entry, canonical isoform): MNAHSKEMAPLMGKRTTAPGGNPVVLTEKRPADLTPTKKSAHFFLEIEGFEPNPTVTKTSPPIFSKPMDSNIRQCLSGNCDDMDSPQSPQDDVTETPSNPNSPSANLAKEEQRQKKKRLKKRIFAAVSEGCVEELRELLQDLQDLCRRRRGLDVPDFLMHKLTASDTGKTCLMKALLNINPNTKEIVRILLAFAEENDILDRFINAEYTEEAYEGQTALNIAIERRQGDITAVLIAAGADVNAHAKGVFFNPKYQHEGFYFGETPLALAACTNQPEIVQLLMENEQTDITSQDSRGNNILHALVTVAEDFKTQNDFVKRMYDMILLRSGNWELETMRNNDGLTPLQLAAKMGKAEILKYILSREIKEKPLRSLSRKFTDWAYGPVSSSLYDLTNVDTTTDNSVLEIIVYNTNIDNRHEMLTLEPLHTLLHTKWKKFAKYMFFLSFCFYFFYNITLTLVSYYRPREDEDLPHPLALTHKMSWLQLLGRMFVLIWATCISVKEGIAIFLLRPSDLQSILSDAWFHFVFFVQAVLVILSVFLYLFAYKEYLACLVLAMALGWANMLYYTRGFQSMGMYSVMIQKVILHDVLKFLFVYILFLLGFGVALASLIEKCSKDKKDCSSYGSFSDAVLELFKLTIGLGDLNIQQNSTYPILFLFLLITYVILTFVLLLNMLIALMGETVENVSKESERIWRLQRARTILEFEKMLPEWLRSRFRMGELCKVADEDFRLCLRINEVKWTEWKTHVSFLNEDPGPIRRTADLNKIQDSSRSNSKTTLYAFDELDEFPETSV

Row | Structure (SMILES) | IC50 (TRPV4 (rat)) | inhibition of TRPV4-mediated Ca++ influx, first round screening (TRPV4 (rat)) | inhibitory activity against human TRPA1 (human TRPA1) | inhibition of TRPV3 (TRPV3) | heart rate (EKG) [1] | alanine-amino-transferase (ALT) [1] | serum creatinin [1] | nocifensive behavior, in particular second phase [2] | response to pain following UVB exposure [3] | inhibition of TRPV4-mediated calcium influx (peak calcium concentration) (TRPV4) | IC50 (TRPA1 (mouse)) | increased potency versus parental compound GSK205 (TRPV4 (rat); from IC50 values, rat TRPV4 in N2a cells)
1 | CN(CCc1ccc(Nc2nc(-c3ccccc3)cs2)cc1)Cc1ccccc1 [Compound 16-8] | 450 nM | virtually eliminated Ca++ influx | showed inhibitory activity | did not inhibit | did not detect differences and changes in heart rate | not significantly elevated | not significantly elevated | significant attenuation | especially effective | most potent | 410 nM and 430 nM | 
2 | CCN(CCc1ccc(Nc2nc(-c3ccccc3)cs2)cc1)Cc1ccccc1 [Compound 16-19] | 590 nM and 810 nM | virtually eliminated Ca++ influx | showed inhibitory activity | did not inhibit | did not detect differences and changes in heart rate | not significantly elevated | not significantly elevated | significant attenuation |  | did not show enhanced inhibition over 16-8 | 430 nM and 410 nM | ~8 fold
3 | CN(CCc1ccc(Nc2nc(-c3cccnc3)cs2)cc1)Cc1ccccc1 [GSK205] | 4190 nM |  | did not inhibit TRPA1 activity |  |  |  |  | lack of effect | as effective as vehicle | very low potency | 5560 ± 400 nM | 
